Laboratory results: ChEMBL document CHEMBL2407069, “Pyrimidone-based series of glucokinase activators with alternative donor-acceptor motif” (Bioorg Med Chem Lett, 2013)

What was measured:
[1] = Oral bioavailability in Wistar-Han rat at 5 mg/kg; type: ADME, organism-based; settings: in vivo
[2] = AUC in Wistar-Han rat at 5 mg/kg, po; type: ADME, organism-based; design: dose 5 mg/kg, route oral; settings: plasma
[3] = Cmax in Wistar-Han rat at 5 mg/kg, po; type: ADME, organism-based; design: dose 5 mg/kg, route oral; settings: in vivo
[4] = Volume of distribution at steady state in Wistar-Han rat at 1 mg/kg, iv; type: ADME, organism-based; design: dose 1 mg/kg, route intravenous; settings: in vivo, read-out: Vdss
[5] = Half life in Wistar-Han rat at 1 mg/kg, iv; type: ADME, organism-based; design: dose 1 mg/kg, route intravenous; settings: in vivo
[6] = Clearance in Wistar-Han rat at 1 mg/kg, iv; type: ADME, organism-based; design: dose 1 mg/kg, route intravenous; settings: in vivo
[7] = Intrinsic clearance in rat liver microsomes; type: ADME, Microsome; settings: read-out: CLH
[8] = Intrinsic clearance in human liver microsomes; type: ADME, Microsome; settings: read-out: CLH
[9] = Lipophilicity, log D of the compound by shake-flask method; type: physicochemical; settings: octanol/water

| bioavailability [1] [%] | AUC [2] [ng·h/mL] | Cmax [3] [ng/mL] | Vd [4] [L/kg] | half-life [5] [min] | clearance [6] [mL/min/kg] | CLint scaled [7] [mL/min/kg] | CLint scaled [8] [mL/min/kg] | logD [9] | SMILES |
| --- | --- | --- | --- | --- | --- | --- | --- | --- | --- |
| 29 | 703 | 150 | 6.41 | 90 | 61 | 105 | < 9.8 | 2.14 | CC(C)Oc1cc(Oc2ccc(S(C)(=O)=O)cc2)cc(-c2nccc(=O)[nH]2)c1 |
| 2 | 141 | 31 | 0.746 | 318 | 13 | 189 | < 8 | 2.68 | Cc1cnc(-c2cc(Oc3ccc(S(C)(=O)=O)cc3)cc(OC(C)C)c2)[nH]c1=O |
| – | – | – | – | – | – | 96 | < 8 | 2.43 | Cc1cc(=O)[nH]c(-c2cc(Oc3ccc(S(C)(=O)=O)cc3)cc(OC(C)C)c2)n1 |
| – | – | – | – | – | – | 171 | < 8 | 3.11 | CCc1cnc(-c2cc(Oc3ccc(S(C)(=O)=O)cc3)cc(OC(C)C)c2)[nH]c1=O |
| – | – | – | – | – | – | < 25.4 | < 8 | 2.21 | COc1cnc(-c2cc(Oc3ccc(S(C)(=O)=O)cc3)cc(OC(C)C)c2)[nH]c1=O |
| – | – | – | – | – | – | < 25.4 | < 8 | 2.04 | CC(C)Oc1cc(Oc2ccc(S(C)(=O)=O)cc2)cc(-c2ncc(Cl)c(=O)[nH]2)c1 |
| – | – | – | – | – | – | – | < 8 | 2.63 | CNS(=O)(=O)c1ccc(Oc2cc(OC(C)C)cc(-c3nccc(=O)[nH]3)c2)cc1 |
| – | – | – | – | – | – | 102 | 8.3 | 1.54 | CC(C)Oc1cc(Oc2cnc(C(=O)N(C)C)c(F)c2)cc(-c2nccc(=O)[nH]2)c1 |
| – | – | – | – | – | – | < 25.4 | < 8 | 0.97 | CC(C)Oc1cc(Oc2cnc(C(=O)N(C)C)nc2)cc(-c2nccc(=O)[nH]2)c1 |
| – | – | – | – | – | – | 47 | < 8 | 1.34 | CC(C)Oc1cc(Oc2cnc(C(=O)N(C)C)cn2)cc(-c2nccc(=O)[nH]2)c1 |
| 32 | 580 | 412 | 5.79 | 360 | 44 | 91 | 22.4 | 1.91 | CCC(CC)Oc1cc(Oc2cnc(C(=O)N(C)C)nc2)cc(-c2nccc(=O)[nH]2)c1 |
| – | – | – | – | – | – | 106 | < 8 | 1.74 | CN(C)C(=O)c1ncc(Oc2cc(OC3CCCC3)cc(-c3nccc(=O)[nH]3)c2)cn1 |
| – | – | – | – | – | – | 26 | < 8 | -0.02 | C[C@@H](CO)Oc1cc(Oc2cnc(C(=O)N(C)C)nc2)cc(-c2nccc(=O)[nH]2)c1 |
| – | – | – | – | – | – | 38 | < 8 | 0.43 | COC[C@H](C)Oc1cc(Oc2cnc(C(=O)N(C)C)nc2)cc(-c2nccc(=O)[nH]2)c1 |
| – | – | – | – | – | – | < 25.4 | < 8 | 1.48 | Cc1cnc(-c2cc(Oc3cnc(C(=O)N(C)C)nc3)cc(OC(C)C)c2)[nH]c1=O |
| – | – | – | – | – | – | < 25.4 | < 8 | 0.81 | COC[C@H](C)Oc1cc(Oc2cnc(C(=O)N(C)C)cn2)cc(-c2nccc(=O)[nH]2)c1 |
| – | – | – | – | – | – | – | 12 | 2.26 | Cc1cnc(-c2cc(Oc3ccc(S(=O)(=O)N(C)C)cc3)cc(O[C@@H](C)CO)c2)[nH]c1=O |
| – | – | – | – | – | – | < 25.4 | < 8 | 2.01 | CNS(=O)(=O)c1ccc(Oc2cc(O[C@@H](C)CO)cc(-c3ncc(C)c(=O)[nH]3)c2)cc1 |
| 6 | 253 | 74 | 0.746 | 108 | 19 | < 25.4 | < 8 | 1.42 | CCS(=O)(=O)c1ccc(Oc2cc(O[C@@H](C)CO)cc(-c3nccc(=O)[nH]3)c2)cc1 |
| – | – | – | – | – | – | 97 | 17 | 4.05 | Cc1ccc(NC(=O)c2cc(Oc3ccc(S(C)(=O)=O)cc3)cc(OC(C)C)c2)nc1 |
| – | – | – | – | – | – | 349 | < 8 | 2.82 | CC(C)Oc1cc(Oc2ccc(S(C)(=O)=O)cc2)cc(-c2cccc(=O)[nH]2)c1 |
| – | – | – | – | – | – | 61 | 11 | 2.27 | CC(C)Oc1cc(Oc2ccc(S(C)(=O)=O)cc2)cc(-c2cncc(=O)[nH]2)c1 |
